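Where inhibition never reached the appropriate level, the endpoint shown equals the highest concentration tested. Otherwise, values were interpolated linearly from a five-concentration, 48-hour dose response in 96-well plates. At the GI50, growth is halved.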 Active and inactive are the calls of the source. Cut-off read from the data, not from the text of the source: active = GI50 up to about 1.1 µM and inactive = higher.
Experiments:
Experiment in all cases: NCI-60 cell line screen, 48 h
[1] = system: CAKI-1
[2] = system: COLO 205
[3] = system: HCT-116
[4] = system: IGROV-1
[5] = system: MCF7
[6] = system: MOLT-4
[7] = system: NCI-H460
[8] = system: NCI-H522
[9] = system: PC-3
[10] = system: SF-295
[11] = system: SK-MEL-5
[12] = system: SNB-19
[13] = system: T47D
[14] = system: TK-10
[15] = system: UACC-62
[16] = system: UO-31
[17] = system: CCRF-CEM
[18] = system: RXF 393
[19] = system: Hs-578T

Row | Compound | GI50 [1] | GI50 [2] | GI50 [3] | GI50 [4] | GI50 [5] | GI50 [6] | GI50 [7] | GI50 [8] | GI50 [9] | GI50 [10] | GI50 [11] | GI50 [12] | GI50 [13] | GI50 [14] | GI50 [15] | GI50 [16] | GI50 [17] | GI50 [18] | GI50 [19]
1 | S=C(S)NCCCn1ccnc1 | > 100 µM (inactive) | > 100 µM (inactive) | > 100 µM (inactive) | > 100 µM (inactive) | > 100 µM (inactive) | > 100 µM (inactive) | > 100 µM (inactive) | > 100 µM (inactive) | > 100 µM (inactive) | > 100 µM (inactive) | > 100 µM (inactive) | > 100 µM (inactive) | > 100 µM (inactive) | > 100 µM (inactive) | > 100 µM (inactive) | > 100 µM (inactive) |  |  | 
2 | Cc1ccc(/N=N/c2c(-c3ccccc3)nn(C(=O)CC(=O)Nc3ccc(Cl)cc3)c2-c2ccccc2)cc1 | 55 µM (inactive) | 59.3 µM (inactive) | 61.5 µM (inactive) | > 100 µM (inactive) |  | 21.3 µM (inactive) | > 100 µM (inactive) | 37.8 µM (inactive) |  | 24.4 µM (inactive) | 90.8 µM (inactive) | 49.7 µM (inactive) |  |  | 70.5 µM (inactive) | 27.7 µM (inactive) | 18.6 µM (inactive) | 28.4 µM (inactive) | 
3 | COc1ccccc1/C=C1\NC(=S)N(/C=C2\C(=O)Oc3ccccc3C2=O)C1=O | > 100 µM (inactive) | 45.3 µM (inactive) | 14.2 µM (inactive) | 26.6 µM (inactive) | 71.4 µM (inactive) | 11 µM (inactive) | 41.4 µM (inactive) | 39.4 µM (inactive) | 44.2 µM (inactive) | 45.2 µM (inactive) | 23.9 µM (inactive) | 38.2 µM (inactive) |  | 33.5 µM (inactive) | 23.3 µM (inactive) | 21.2 µM (inactive) | 23.4 µM (inactive) | 38.5 µM (inactive) | > 100 µM (inactive)
4 | COc1ccc(C2c3c[nH]nc3CC3CCCCC32)cc1 (stereo unspecified) | 14.2 µM (inactive) |  | 17.8 µM (inactive) | 12.7 µM (inactive) | 15.2 µM (inactive) | 17.7 µM (inactive) | 16.5 µM (inactive) | 19.8 µM (inactive) | 14.8 µM (inactive) |  | 15.7 µM (inactive) | 18.2 µM (inactive) | 3.99 µM (inactive) | 19.7 µM (inactive) | 11.9 µM (inactive) | 14 µM (inactive) | 21.9 µM (inactive) |  | 
5 | CN(C)c1nncc2[nH]nnc12 | > 100 µM (inactive) | > 100 µM (inactive) | > 100 µM (inactive) | > 100 µM (inactive) | > 100 µM (inactive) | > 100 µM (inactive) |  | > 100 µM (inactive) | > 100 µM (inactive) | > 100 µM (inactive) | > 100 µM (inactive) |  | > 100 µM (inactive) | > 100 µM (inactive) | > 100 µM (inactive) | > 100 µM (inactive) | > 100 µM (inactive) |  | 
6 | CN(C)CCN(/C(=N/c1ccccc1)N1CCCC1)c1ccccc1 | > 100 µM (inactive) | 16.9 µM (inactive) | 3.91 µM (inactive) | 13.7 µM (inactive) | 42.5 µM (inactive) | 4.92 µM (inactive) | 42.4 µM (inactive) | 16.5 µM (inactive) | 19.8 µM (inactive) | 18.4 µM (inactive) | 30.2 µM (inactive) | > 100 µM (inactive) | > 100 µM (inactive) | > 100 µM (inactive) | 11.9 µM (inactive) | 21.9 µM (inactive) | 8.69 µM (inactive) |  | > 100 µM (inactive)
7 | COC(=O)c1c(O)c(C#N)c2[nH]c3ccccc3n2c1=O | > 100 µM (inactive) | > 100 µM (inactive) | > 100 µM (inactive) | > 100 µM (inactive) | > 100 µM (inactive) | > 100 µM (inactive) | > 100 µM (inactive) | > 100 µM (inactive) | > 100 µM (inactive) | > 100 µM (inactive) | > 100 µM (inactive) | > 100 µM (inactive) |  | > 100 µM (inactive) | > 100 µM (inactive) | > 100 µM (inactive) | > 100 µM (inactive) | > 100 µM (inactive) | > 100 µM (inactive)
8 | CCNc1nc2c(ncn2C2CC(O)C(COP(=O)(O)O)O2)c(=O)[nH]1 (stereo unspecified) | > 100 µM (inactive) | > 100 µM (inactive) | > 100 µM (inactive) | > 100 µM (inactive) | > 100 µM (inactive) |  | > 100 µM (inactive) | > 100 µM (inactive) | > 100 µM (inactive) | > 100 µM (inactive) | > 100 µM (inactive) | > 100 µM (inactive) | > 100 µM (inactive) | > 100 µM (inactive) | > 100 µM (inactive) |  |  |  | > 100 µM (inactive)
9 | O=[N+]([O-])c1ccc(NN/N=N/c2ccc(-c3nc4ccccc4s3)cc2)c([N+](=O)[O-])c1 | 26.5 µM (inactive) | 16.4 µM (inactive) | 17.5 µM (inactive) | 19.9 µM (inactive) |  | 13.7 µM (inactive) | 22.3 µM (inactive) | 25 µM (inactive) | 24.4 µM (inactive) | 19.5 µM (inactive) | 15.3 µM (inactive) | 31.1 µM (inactive) | 19.1 µM (inactive) | 36.9 µM (inactive) | 14 µM (inactive) | 19.1 µM (inactive) | 28.6 µM (inactive) | 18.7 µM (inactive) | 33.5 µM (inactive)
10 | COC(=O)c1c2c(cc3c1CC1(Cc4cc5c(cc4C1=O)CCC5)C3)CCC2 (stereo unspecified) | 21 µM (inactive) | 79.3 µM (inactive) | 13.3 µM (inactive) | 34.3 µM (inactive) | 24.7 µM (inactive) | 5.47 µM (inactive) | 86.1 µM (inactive) | 19.9 µM (inactive) | 6.68 µM (inactive) | 21.5 µM (inactive) | 10.5 µM (inactive) | > 100 µM (inactive) | 59 µM (inactive) | 22.8 µM (inactive) | 39.1 µM (inactive) | > 100 µM (inactive) | 11 µM (inactive) |  | 16.4 µM (inactive)
11 | COc1ccc(N2C(=O)/C(=C/c3ccc(N(CCC#N)CCC#N)cc3)N=C2c2ccccc2)cc1 | 6.19 µM (inactive) | > 100 µM (inactive) | > 100 µM (inactive) | > 100 µM (inactive) | > 100 µM (inactive) | > 100 µM (inactive) | > 100 µM (inactive) |  | > 100 µM (inactive) | > 100 µM (inactive) | > 100 µM (inactive) | > 100 µM (inactive) | > 100 µM (inactive) | > 100 µM (inactive) | > 100 µM (inactive) | > 100 µM (inactive) |  | > 100 µM (inactive) | > 100 µM (inactive)
12 | COC(=O)C1(Cc2ccc3c(c2)CCC3)Cc2ccccc2C1 | 36.2 µM (inactive) | 25 µM (inactive) | 26.9 µM (inactive) | 48.3 µM (inactive) | 32.8 µM (inactive) | 6.73 µM (inactive) | 32.9 µM (inactive) | 22.5 µM (inactive) | 16.1 µM (inactive) | 27.4 µM (inactive) |  | 48.5 µM (inactive) | 24.6 µM (inactive) | 82.8 µM (inactive) | 36.1 µM (inactive) | 33.7 µM (inactive) | 11.5 µM (inactive) |  | 48.3 µM (inactive)
13 | Nn1c(Nc2ccc(S(N)(=O)=O)cc2)nnc(/C=C/c2c(O)ccc3ccccc23)c1=O | 22.9 µM (inactive) | 27.1 µM (inactive) | 16.3 µM (inactive) | 0.128 µM (active) | 17.5 µM (inactive) | 0.234 µM (active) | 26.7 µM (inactive) | 13.5 µM (inactive) | 47.2 µM (inactive) | 24.3 µM (inactive) | 14.5 µM (inactive) | 32.5 µM (inactive) | 15 µM (inactive) |  | 18.7 µM (inactive) | 22.9 µM (inactive) | 4.03 µM (inactive) |  | 31 µM (inactive)
14 | COc1ccc(OC)c(CNc2ccc(O)c(C(=O)NCCc3ccc(F)cc3)c2)c1 | 21.5 µM (inactive) | 18.6 µM (inactive) | 12.1 µM (inactive) | 5.68 µM (inactive) | 10.8 µM (inactive) | 4.05 µM (inactive) | 13.2 µM (inactive) | 2.83 µM (inactive) | 10.1 µM (inactive) | 13.7 µM (inactive) | 7.19 µM (inactive) | 15.1 µM (inactive) |  | 28.9 µM (inactive) | 8.89 µM (inactive) | 7.18 µM (inactive) | 7.23 µM (inactive) |  | 22.7 µM (inactive)
15 | N/C(=N\c1ccc(Cl)cc1)c1ccccc1N | > 100 µM (inactive) | > 100 µM (inactive) | > 100 µM (inactive) | > 100 µM (inactive) | > 100 µM (inactive) | > 100 µM (inactive) | > 100 µM (inactive) | > 100 µM (inactive) | > 100 µM (inactive) | > 100 µM (inactive) | > 100 µM (inactive) | > 100 µM (inactive) |  | > 100 µM (inactive) | > 100 µM (inactive) | > 100 µM (inactive) | > 100 µM (inactive) | > 100 µM (inactive) | > 100 µM (inactive)
16 | O=C1/C(=C/c2ccc(Cl)cc2)CNC/C1=C\c1ccc(Cl)cc1 | 1.58 µM (inactive) | 2.14 µM (inactive) | 0.83 µM (active) | 1.58 µM (inactive) | 1.52 µM (inactive) | 3.72 µM (inactive) | 1.35 µM (inactive) | 1.92 µM (inactive) | 2.97 µM (inactive) |  | 4.44 µM (inactive) | 1.82 µM (inactive) | 5 µM (inactive) | 3.95 µM (inactive) | 2.43 µM (inactive) |  |  |  | 3.47 µM (inactive)

Source: ChEMBL document CHEMBL1201862, “PubChem BioAssay data set” (2004)
